The nature of data set [1]: Cytoprotective activity against Down syndrome patient-derived human Detroit 532 cells assessed as increase in mitochondrial membrane potential at 10 uM incubated for 3 days by JC-1 staining based fluorescence microscopy. The class given is functional. Conditions: time 3 day.
The subject of a further data set is Mus musculus. The data set is described as follows: Antidiabetic activity in high fat diet-induced obese db/db mouse assessed as reduction in total lipid concentration at 30 mg/kg,ip administered for 2 weeks. The data set is classed as functional. Details: scale not given: the % may be the effect or the level left.
A short description of data set [2]: Drug uptake in human HepG2 cells with ASGPR overexpression assessed as fold increase in intracellular uptake. The class given is ADME, cell-based.

On to `CC(=O)N[C@@H](CSc1nc2c(=O)[nH]c(N)nc2n1Cc1ccc(F)cc1)C(=O)NCCCOCCOCCOCCCCC(=O)C(=O)c1c(-c2ccccc2)[nH]c2ccccc12`, for which the Activity in data set [1] stood at 50%.
Regarding `O=c1cc(-c2ccccc2)c2c(OCCCCCCCCCCOc3ccc4ccccc4c3/N=N/c3ccc(/N=N/c4ccccc4)cc3)cc(O)cc2o1`, in the data set on Mus musculus, the Activity was 62%.
In the case of `O=C1C(=Cc2cc(Br)c(O)c(Br)c2)c2cc(I)ccc2N1CCCCCCCCCCCOc1ccc2ccccc2c1/N=N/c1ccc(/N=N/c2ccccc2)cc1`, in the data set with Mus musculus, the Activity amounted to 62%.
For the compound `N[C@@H](COC1O[C@H](CCP(=O)(O)O)[C@@H](O)[C@H](O)[C@@H]1O)C(=O)O` (stereo not given in full), in data set [2], the “fold change (FC)” value came to 2.
On the same count and under the same terms, under `CC(=O)N[C@@H]1[C@@H](O)[C@@H](O)[C@@H](CO)O[C@@H]1O` stands 16.

The record behind these values is ChEMBL document CHEMBL5104234, “Targeted protein degradation using the lysosomal pathway” (RSC Med Chem, 2022).
